Test results reported in paper PMC10384936, “Identification and Biological Characterization of the Pyrazolo[3,4-d]pyrimidine Derivative SI388 Active as Src Inhibitor” (Pharmaceuticals, 2023).

Key:
Abl = target: T1, Abl (Homo sapiens, UniProt P00519); assay: Abl enzymatic assay (ADP-Glo kinase assay); assay type: biochemical; details: for Ki: mean of at least three experiments, 30 μM ATP, read-out: Bcr-Abl Ki
T1 construct: purchased Merck-Millipore
Method: (§1) Src, Fyn, and Abl were purchased from Merck-Millipore. Reactions were performed according to the manufacturer’s instructions with minor modifications. All substrates were used at least at twice the concentration of apparent Km. In detail: Src reactions were performed using 500 μM Src-peptide (KVEKIGEGTYGVVYK), 100 μM ATP, and 0.00087% NP-40; Fyn reactions were performed using 360 μM Src-peptide (KVEKIGEGTYGVVYK), 200 μM ATP, and 0.0026% NP-40; Abl reactions were performed using 50 μM abltide (EAIYAAPFAKKK), 30 μM ATP, and 0.00087% NP-40. All reactions were performed using 10–50 ng of enzyme and 10% DMSO in 10 μL of kinase buffer (8 mM MOPS-NaOH pH7.0, 0.2 mM EDTA, 10 mM MgAc) at 30 °C for 10 min.
(§2) To avoid peptide adsorbing to the plastic surface, protein low-binding tubes were used. ADP-Glo kinase assay (Promega) was then used to detect kinase activity according to the manufacturer’s instructions with minor modifications. In detail, reactions were transferred to white 384 well-plates and stopped by adding 10 µL of ADP-Glo reagent (Promega) for 50 min at room temperature. A total of 20 μL of detection reagent (Promega) was then added for 30 min and the reaction read using a GloMax Discover microplate reader (Promega). Data were plotted using GraphPad Prism 5.0. IC50 values were obtained according to Equation (1):v = V/{1 + (I/IC50)} (1) where v is the measured reaction velocity, V is the apparent maximal velocity in the absence of inhibitor, I is the inhibitor concentration, and IC50 is the 50% inhibitory dose. Compounds tested were assumed to act as fully ATP-competitive inhibitors. Therefore, Ki values were calculated according to Equation (2):Ki = IC50/(1+ […]) (2) where Ki is the affinity of the inhibitor to the enzyme, S is the ATP concentration, and Km is the affinity of ATP calculated according to the Michaelis–Menten equation.

Src = target: T2, Src (Homo sapiens, UniProt P12931); assay: Src enzymatic assay (ADP-Glo kinase assay); assay type: biochemical; details: for Ki: mean of at least three experiments, 100 μM ATP
T2 construct: purchased Merck-Millipore
Method: as §1, §2

Bcr-Abl = target: Bcr-Abl; set-up: method as in PMID 23746084, PMID 28650650, PMID 25469771, PMID 21443205, PMID 17929792; details: in-house lead compounds, Figure 1; cited from earlier work
osteosarcoma = tested on: osteosarcoma; set-up: method as in PMID 17929792; details: cited from earlier work
32D-T315I CML cells = details: mice inoculated with 32D-T315I CML cells; cited from earlier work
GBM = tested on: GBM; set-up: method as in PMID 28650650, PMID 25469771; details: cited from earlier work
NB = tested on: NB; set-up: method as in PMID 28650650, PMID 25469771; details: cited from earlier work
U251 cells [1] = assay: MTS cell viability assay, U251; assay type: cell-based; details: 72 h, 10 nM, 1 µM, 25 µM
Method: (§3) Next, the ability of SI388 to inhibit cell viability was evaluated using an MTS assay.
(§4) Cells were plated in 96 multiwells (1000 cells/well) in 100 µL of the complete medium. The following day, after 24 h of starvation, the cells were treated with DMSO, dasatinib or SI388 at different concentrations (10 nM, 1 µM, 25 µM). After 72 h, cells were treated with tetrazolium (Promega) for 1–2 h. The quantity of formazan product is directly proportional to the number of living cells in the culture. The plate is then read with a plate reader measuring the absorbance of 490 nm for the different conditions.

U251 cells [2] = assay: MTS assay after ionizing radiation, U251; assay type: cell-based; details: 1 µM pre-treatment 24 h, IR 10 Gy, 48 h after IR, not statistically significant
Method: (§5) To this aim, T98G and U251 cells were pre-incubated or not with SI388 for 24 h and then irradiated (10 Gy).
as §4

GBMSC83 cells [3] = assay: Cell death analysis, Annexin V-PI cytofluorimetry after IR, GBMSC83; assay type: cell-based; details: 1 µM pre-treatment 24 h, IR 10 Gy, 48 h after IR, vs control
Method: GBMSC83 cells were pretreated with 1 µM SI388 or 1 µM DAS, or DMSO as a control, for 24 h and then irradiated (10 Gy). After 48 h from IR, cytofluorimetric analysis of AnnexinV-PI staining was performed.
1 × 10^6 cells were analyzed for cell death 48 h from ionizing radiation (10 Gy) upon staining with Annexin V-APC-propidium iodide (PI) kit, according to manufacturer instructions (eBioscience™ Annexin V apoptosis detection kits, ThermoFisher Scientific, Waltham, MA, USA). Unstained samples were used as the control. CytoFLEX S (Beckman Coulter, Milan, Italy) instrument was used to quantify the double staining. Quality control was evaluated using CytoFLEX Daily QC Fluorospheres (Beckman Coulter). CytExpert version 2.2 software (Beckman Coulter) was used to analyze FCS files. Dead cells were graphed as fold change to control conditions.

T98G cells [4] = assay: MTS cell viability assay, T98G; assay type: cell-based; details: 72 h, 10 nM, 1 µM, 25 µM
Method: as §3, §4

[5] = tested on: Src phosphorylation on Tyr416 in GBMSC83 cells; assay: Immunoblotting of pY416-Src in GBMSC83 cells; assay type: cell-based; details: 1 µM, 24 h
Method: (§6) Cell extracts were prepared in RIPA (50 mM Tris-HCl pH 8.0, 150 mM NaCl, 1% NP40, 1 mM EGTA, 1 mM EDTA, 0.25% sodium deoxycholate) or IP buffer (50 mM Tris–HCl pH 7.5, 250 mM NaCl, 1% NP-40, 5 mM EDTA, 5 mM EGTA) supplemented with protease and phosphatase inhibitors (Roche Diagnostic, Mannheim, Germany). For immunoblotting, 25–30 µg of protein was separated by sodium dodecyl sulfate (SDS) polyacrylamide gel electrophoresis (PAGE), blotted onto nitrocellulose membrane, and detected with specific antibodies.

[6] = tested on: Src phosphorylation on Tyr416 in U251 cells; assay: Immunoblotting of pY416-Src in U251 cells; assay type: cell-based; details: 10 nM and 1 µM, 24 h, vs DMSO
Method: Dasatinib (Sigma Aldrich, DAS, Merck Millipore, Burlington, MA, USA), SI388 and SI83 were used at different concentration (10 nM, 1 µM or 25 µM) for 24 h upon serum deprivation. DMSO (Sigma Aldrich) was used as the control.
as §6

T98G cells [7] = assay: MTS assay after ionizing radiation, T98G; assay type: cell-based; details: 1 µM pre-treatment 24 h, IR 10 Gy, 48 h after IR, statistically significant
Method: as §5, §4

Fyn = target: T3, Fyn (Homo sapiens, UniProt P06241); assay: Fyn enzymatic assay (ADP-Glo kinase assay); assay type: biochemical
T3 construct: purchased Merck-Millipore
Method: as §1, §2

T98G cells [8] = assay: Clonogenic assay, T98G; assay type: cell-based; details: 10 nM, 1 µM, 25 µM for 24 h, colonies after 15 days
Method: (§7) To further characterize the ability of SI388 to inhibit tumor growth, we performed clonogenic assays using T98G and U251 cell lines. Cells were starved and treated for 24 h with increasing concentration (10 nM, 1 µM, and 25 µM) of SI388 or DAS. The ability of single cells to proliferate and produce colonies was evaluated after 15 days, both in control conditions (treated with DMSO) and after treatment with different Src inhibitors.
(§8) For colony formation, control and irradiated (5 Gy) cells were seeded at the concentration of 1000 cells/dish in 6-well culture plates and incubated at 37 °C, 5% CO2 for 10–15 days.
(§9) Crystal violet solution (10% (v/v) methanol and 0.5% Crystal Violet) was used to fix and stain colonies, upon 20 min incubation. The stained colonies (>50 cells) were counted under a microscope or using Image “Colonyarea” plugin. Data were expressed as the mean and SD of three independent experiments.

U251 cells [9] = assay: Clonogenic assay, U251; assay type: cell-based; details: 10 nM, 1 µM, 25 µM for 24 h, colonies after 15 days
Method: as §7, §8, §9

GBMSC83 cells [10] = assay: Neurosphere formation, cell counting and sphere size, GBMSC83; assay type: cell-based; details: 1 µM, 72 h, vs control
Method: GBMSC83 cells were seeded at the density of 1 × 10^4 cells/well in a 96-well ultralow attachment plate, and the following day they were treated with SI388 1 µM or dasatinib 1 µM. After 72 h from treatment, cells were stained with Hoechst 33,342 (Thermo Fisher Scientific) and images were acquired with Fluorescence microscopy (ZEISS) and processed with Fiji version 2.3. Hoechst positive nuclei were counted by particle detection instrument of ComDet Plugin of Fiji. The bright fields were acquired and processed by Cell Profiler version 2.1.1 to measure spheres’ diameter and reported as the fold change from the control condition.

T2 sequence (P12931 whole entry, species assumed): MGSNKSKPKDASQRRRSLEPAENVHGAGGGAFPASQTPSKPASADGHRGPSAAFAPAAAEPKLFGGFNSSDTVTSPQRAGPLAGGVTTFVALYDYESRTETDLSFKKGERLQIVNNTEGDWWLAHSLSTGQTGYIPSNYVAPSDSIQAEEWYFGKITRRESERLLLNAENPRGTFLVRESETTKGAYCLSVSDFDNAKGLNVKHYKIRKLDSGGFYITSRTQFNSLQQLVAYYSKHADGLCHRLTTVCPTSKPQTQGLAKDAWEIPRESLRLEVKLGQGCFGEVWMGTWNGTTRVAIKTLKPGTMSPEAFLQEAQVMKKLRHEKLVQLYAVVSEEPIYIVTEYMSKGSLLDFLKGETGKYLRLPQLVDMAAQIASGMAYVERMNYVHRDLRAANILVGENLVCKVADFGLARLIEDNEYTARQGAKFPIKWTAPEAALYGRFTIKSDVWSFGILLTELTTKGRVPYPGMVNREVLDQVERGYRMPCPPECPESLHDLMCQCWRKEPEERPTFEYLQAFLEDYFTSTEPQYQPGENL
T1 sequence (P00519 whole entry, species assumed): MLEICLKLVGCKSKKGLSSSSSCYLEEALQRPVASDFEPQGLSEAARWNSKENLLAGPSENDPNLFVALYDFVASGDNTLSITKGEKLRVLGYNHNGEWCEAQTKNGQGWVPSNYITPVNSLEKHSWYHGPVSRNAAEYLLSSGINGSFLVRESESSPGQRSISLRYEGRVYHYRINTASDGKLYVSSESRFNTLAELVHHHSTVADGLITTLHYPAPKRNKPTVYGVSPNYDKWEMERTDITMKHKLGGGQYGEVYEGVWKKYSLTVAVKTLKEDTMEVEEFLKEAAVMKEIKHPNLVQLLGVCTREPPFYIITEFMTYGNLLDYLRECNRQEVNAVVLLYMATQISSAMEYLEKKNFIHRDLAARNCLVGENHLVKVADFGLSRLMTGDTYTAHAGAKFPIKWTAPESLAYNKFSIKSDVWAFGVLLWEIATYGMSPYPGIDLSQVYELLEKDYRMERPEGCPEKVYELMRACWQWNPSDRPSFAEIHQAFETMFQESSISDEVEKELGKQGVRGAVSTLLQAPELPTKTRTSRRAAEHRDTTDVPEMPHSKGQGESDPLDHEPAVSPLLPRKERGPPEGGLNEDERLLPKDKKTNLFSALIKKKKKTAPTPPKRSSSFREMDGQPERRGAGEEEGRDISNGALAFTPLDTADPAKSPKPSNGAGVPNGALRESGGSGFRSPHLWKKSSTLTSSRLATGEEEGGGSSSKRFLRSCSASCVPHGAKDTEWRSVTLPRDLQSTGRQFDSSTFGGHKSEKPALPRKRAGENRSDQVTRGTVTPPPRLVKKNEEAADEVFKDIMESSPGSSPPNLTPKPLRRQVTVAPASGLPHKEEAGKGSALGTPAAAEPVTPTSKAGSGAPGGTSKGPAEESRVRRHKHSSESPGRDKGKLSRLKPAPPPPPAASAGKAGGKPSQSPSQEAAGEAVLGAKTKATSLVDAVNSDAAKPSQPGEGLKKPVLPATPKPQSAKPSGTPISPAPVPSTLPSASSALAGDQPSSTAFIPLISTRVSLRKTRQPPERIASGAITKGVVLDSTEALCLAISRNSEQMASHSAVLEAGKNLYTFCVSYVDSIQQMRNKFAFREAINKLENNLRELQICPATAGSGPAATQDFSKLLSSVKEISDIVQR
T3 sequence (P06241 whole entry, species assumed): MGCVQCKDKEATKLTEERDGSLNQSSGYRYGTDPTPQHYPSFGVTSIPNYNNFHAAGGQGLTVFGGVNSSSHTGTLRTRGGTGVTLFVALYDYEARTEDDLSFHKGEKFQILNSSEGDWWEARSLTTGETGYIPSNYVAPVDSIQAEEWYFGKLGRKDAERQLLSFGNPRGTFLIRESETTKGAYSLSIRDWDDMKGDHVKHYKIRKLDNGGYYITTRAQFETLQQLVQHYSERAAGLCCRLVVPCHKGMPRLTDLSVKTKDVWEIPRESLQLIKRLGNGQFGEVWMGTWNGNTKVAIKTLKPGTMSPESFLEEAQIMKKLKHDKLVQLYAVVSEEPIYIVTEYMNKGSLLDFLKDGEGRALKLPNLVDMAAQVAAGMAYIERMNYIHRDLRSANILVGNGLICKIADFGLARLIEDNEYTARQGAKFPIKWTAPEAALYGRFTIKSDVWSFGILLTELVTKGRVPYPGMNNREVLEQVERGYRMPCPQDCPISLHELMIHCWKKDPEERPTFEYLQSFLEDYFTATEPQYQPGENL

Ki (Abl) [µM] | Ki (Src) [µM] | SMILES | Ki (Bcr-Abl) [µM] | Percentage of cell death after IR (AnnexinV-PI) (GBMSC83 cells [3]) | Colony formation (cell growth and proliferation) (T98G cells [8]) | Colony formation (cell growth and proliferation) (U251 cells [9]) | Mean neurosphere diameter (GBMSC83 cells [10]) | Number of cells per sphere (GBMSC83 cells [10]) | further results
0.6 | 0.6 | CSc1nc(Nc2cccc(Cl)c2)c2cnn(CC(Cl)c3ccccc3)c2n1 (stereo not drawn) [1a, reference compound] | 0.6 | – | – | – | – | – | Activity in xenograft mouse model of osteosarcoma (osteosarcoma): active
– | – | ClC(Cn1ncc2c(Nc3ccccc3)ncnc21)c1ccc(Br)cc1 (stereo not drawn) [1b] | – | – | – | – | – | – | Reduction of tumor volume (32D-T315I CML cells): more than 50%
– | – | ClC(Cn1ncc2c(Nc3cccc(Br)c3)nc(SCCN3CCOCC3)nc21)c1ccccc1 (stereo not drawn) [1c] | 0.12 | – | – | – | – | – | Activity in in vivo model of GBM (GBM): showed activity; Activity in in vivo model of NB (NB): showed activity
0.45 ± 0.29 | 0.423 ± 0.093 | CSc1nc(Nc2ccccc2Cl)c2cnn(CC(Cl)c3ccccc3)c2n1 (stereo not drawn) [2a, 1-(2-Chloro-2-phenylethyl)-N-(2-chlorophenyl)-6-(methylthio)-1H-pyrazolo[3,4-d]pyrimidin-4-amine] | – | significantly increased the percentage of cell death | impaired cell growth and proliferation in a dose-dependent manner | impaired cell growth and proliferation in a dose-dependent manner | overall reduced diameter of the spheres | reduced average number of cells per sphere | inhibition at 10 µM (Abl; 10 µM): 72%; Cell viability (MTS) (U251 cells [1]): significantly impaired cell viability; Sensitivity to IR (inhibition of cell viability, MTS) (U251 cells [2]): increases the sensitivity to IR; Cell viability (MTS) (T98G cells [4]): significantly impaired cell viability; Phosphorylation of Src on Tyr416 [5]: significant reduction in phosphorylation of Src on Tyr416; inhibition at 10 µM (Src; 10 µM): 90%; Src phosphorylation on Tyr416 (pY416-Src) [6]: reduction in Src phosphorylation on Tyr416; Sensitivity to IR (inhibition of cell viability, MTS) (T98G cells [7]): increases the sensitivity to IR; inhibition at 10 µM (Fyn; 10 µM): 90.7%; Ki (Fyn; mean of at least three experiments, 200 μM ATP): 0.419 ± 0.075 µM
– | – | Cc1nc(Nc2ncc(C(=O)Nc3c(C)cccc3Cl)s2)cc(N2CCN(CCO)CC2)n1 [dasatinib, reference compound] | – | significantly increased the percentage of cell death | impaired cell growth and proliferation in a dose-dependent manner | impaired cell growth and proliferation in a dose-dependent manner | overall reduced diameter of the spheres | reduced average number of cells per sphere | –
